From ChEMBL document CHEMBL2016462, “Inhibitors of Ketohexokinase: Discovery of Pyrimidinopyrimidines with Specific Substitution that Complements the ATP-Binding Site” (ACS Med Chem Lett, 2011)

Legend:
[1] = molecular target: T1, Ketohexokinase (Homo sapiens, UniProt P50053); assay: Inhibition of human ketohexokinase isoform C expressed in Escherichia coli BL21 (DE3) cells using D-fructose as substrate after 12 to 15 mins by fluorescence polarization assay
T1 sequence (P50053 whole entry): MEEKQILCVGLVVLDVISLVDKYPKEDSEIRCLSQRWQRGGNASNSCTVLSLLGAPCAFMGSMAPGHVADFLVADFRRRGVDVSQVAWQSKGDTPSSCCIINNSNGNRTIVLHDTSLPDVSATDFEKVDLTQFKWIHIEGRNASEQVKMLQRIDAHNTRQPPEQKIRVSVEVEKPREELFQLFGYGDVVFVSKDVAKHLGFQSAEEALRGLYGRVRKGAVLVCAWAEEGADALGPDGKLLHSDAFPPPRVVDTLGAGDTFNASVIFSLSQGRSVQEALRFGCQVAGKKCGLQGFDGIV

[2] = molecular target: T1, Ketohexokinase; assay: Inhibition of ketokinase isoform C in human HepG2 cells assessed as levels of fructose-1-phosphate preincubated for 30 mins followed by substrate addition measured after 3 hrs by LC-MS analysis; assay type: cell-based

IC50 [1] [nM]	IC50 [2] [nM]	SMILES
18	–	CSc1ccccc1Nc1nc(N2CCC[C@@H](N)C2)nc2c(NCC3CC3)ncnc12
7.1	78	CSc1ccccc1Nc1nc(N2CCNCC2)nc2c(N)ncnc12
110	–	CSc1ccccc1Nc1nc(N2CCN(C)CC2)nc2c(NCC3CC3)ncnc12
5000	–	CC(C)c1ccccc1Nc1nc(N2CCNCC2)nc2c(NCC3CC3)ncnc12
10	–	CSc1ccccc1Nc1nc(N2CCC(CN)CC2)nc2c(NCC3CC3)ncnc12
> 9000	–	CCSc1ccccc1Nc1nc(N2CCNCC2)nc2c(NCC3CC3)ncnc12
> 7000	–	Cc1ccccc1Nc1nc(N2CCOCC2)nc2c(NCC3CC3)ncnc12
18	–	CSc1ccccc1Nc1nc(N2CCNCC2)nc2c(NCC3CCC3)ncnc12
200	–	Cc1ccccc1Nc1nc(N2CCC(N)CC2)nc2c(NCC3CC3)ncnc12
1500	–	Cc1ccccc1Nc1nc(N2CCN(C)CC2)nc2c(NCC3CC3)ncnc12
> 9000	–	CSc1ccc(Nc2nc(N3CCNCC3)nc3c(NCC4CC4)ncnc23)cc1
70	–	Cc1ccccc1Nc1nc(N2CCC(CN)CC2)nc2c(NCC3CC3)ncnc12
1500	–	Fc1ccccc1Nc1nc(N2CCNCC2)nc2c(NCC3CC3)ncnc12
3200	–	c1ccc(Nc2nc(N3CCNCC3)nc3c(NCC4CC4)ncnc23)cc1
23	–	CSc1ccccc1Nc1nc(N2CCC[C@H](N)C2)nc2c(NCC3CC3)ncnc12
2300	–	Cc1ccccc1Nc1nc(N2CCNCC2)nc2c(NC3CCCCC3)ncnc12
300	–	Cc1ccccc1Nc1nc(N2CCNCC2)nc2c(NCc3cccs3)ncnc12
1700	–	CCN(CC)c1ncnc2c(Nc3ccccc3C)nc(N3CCNCC3)nc12
130	–	CCc1ccccc1Nc1nc(N2CCNCC2)nc2c(NCC3CC3)ncnc12
7	140	COCCNc1ncnc2c(Nc3ccccc3SC)nc(N3CCNCC3)nc12
130	–	CNCCN(C)c1nc(Nc2ccccc2SC)c2ncnc(NCC3CC3)c2n1
30	590	CSc1ccccc1Nc1nc(N2CC(CN)C2)nc2c(NCC3CC3)ncnc12
400	–	CNc1ncnc2c(Nc3ccccc3C)nc(N3CCNCC3)nc12
60	–	Cc1ccccc1Nc1nc(N2CCNCC2)nc2c(NCc3nccs3)ncnc12
100	–	COc1ccccc1Nc1nc(N2CCNCC2)nc2c(NCC3CC3)ncnc12
